pEC50: −log10 of the molar value.
Key:
primary cortical neurons = experiment: Neuroprotection of primary cortical neurons exposed to Aβ peptides (Live/Dead assay); format: cell-based; settings: Rattus norvegicus, Primary cortical neuron, Aβ25-35, 48 hours, read-out: EC50 (concentration that lead to a 50% increase in neuronal survival in the presence of the Aβ peptide)
Protocol: This example illustrates the neuroprotective effects of TH-237A in neuronal cells after exposure to Aβ peptides. To prepare the primary neurons, dissociated cortical cell cultures were established from embryonic day 18 rat fetuses recovered from pregnant Sprague Dawley rats (Harlan Sprague Dawley, Inc., Indianapolis, Ind.) as described previously (Michaelis et al., 1994). Pups were delivered by cesarean section while the dam was anesthetized with pentobarbital (140 mg/kg, i.p.), and the brains were recovered according to National Institutes of Health-approved protocols. After the final precipitation step, neurons were suspended in fresh DMEM/F12 (Sigma Chemical Co. St. Louis, Mo.) with 10% fetal bovine serum (Atlanta Biologicals, Atlanta, Ga.) and plated at a density of 2.5×10^5 cells in 35 mm glass bottom microwell dishes (Mat-Tek Co., Ashland, Mass.), coated with poly-D-lysine. Serum-containing medium was removed after 24 hours, and the cells were maintained in serum-free DMEM/F12 containing the N2 supplements. […]
After five days in culture, the primary neurons were exposed to either Aβ25-35 or Aβ1-42 in the presence or absence of concentrations of TH-237A ranging from 0.5 to 60 nM. […] Each batch of Aβ peptide was analyzed for β-sheet formation by circular dichroism, but no effort was made to separate oligomers from fibrils. […]
The effects of the Aβ peptides and TH-237A were primarily determined by monitoring neuronal cell survival using the Live/Dead assay as previously described (Michaelis et al., 1998; Michaelis et al., 2005). […] The number of viable (green) and dead (red) neurons was determined by counting the cells, and this was done in 6-12 microscopic fields per culture dish in duplicate dishes for each treatment. […] Thus, approximately 1500 neurons were scored under each treatment condition. The fraction of viable cells in each field was calculated based on the total number of cells counted in each field. Raw data from each experiment were combined and the significance of differences between cultures exposed to various treatments was determined using Student's t test. […]

[1] = Oral absorption of parent compound and prodrug (plasma levels); format: in vivo
Protocol: The prodrug compound (3,5-bis(4-fluorophenyl)tetrahydro-1H-oxazolo[3,4-C]oxazol-7a-yl)methanol phosphate was studied for oral absorption. A formulation of (3,5-bis(4-fluorophenyl)tetrahydro-1H-oxazolo[3,4-C]oxazol-7a-yl)methanol was prepared into a suspension and into a composition with Captisol, and the prodrug thereof was formulated into an aqueous solution. Oral absorption behavior of the parent compound is depicted in FIG. 8. As previously mentioned, the systemic exposure of the parent compound following oral administration of the parent compound as a suspension is limited compared to a solution of the parent compound administered in Captisol. The systemic exposure of the prodrug compound following oral administration of an aqueous solution of the prodrug compound is depicted in FIG. 9.

[2] = In vivo pharmacokinetics in plasma and brain; set-up: species or system Male Balb/C mice; settings: mice, 10 mg/Kg in Captisol, i.v. or s.c.
Protocol: In this example, the pharmacokinetics of TH-237A were evaluated in vivo. Male Balb/C mice were dosed with TH-237A (10 mg/Kg in Captisol®) via either an i.v. injection into the tail vein or via subcutaneous (sc) injection. At multiple time points ranging from 0 to 240 minutes, 12 mice (n=6, i.v.; n=6, s.c.) were anesthetized with isoflurane, and blood was collected via cardiac puncture. Mice were perfused with 30 mL of saline to wash remaining blood from the vessels, and the brain tissue was harvested. The levels of TH-237A in plasma and brain were quantified using mass spectrometric methods.
Sample preparations. Brain homogenate was prepared in a 1:4 ratio with deionized water. A sonic dismembrator was pulsed at 30% power until the sample was liquified. Aliquots of mouse plasma (0.05 mL) or mouse brain homogenates (0.25 g) were spiked with 50 ng of internal standard (deuterated TH-237A) and vortexed for 10 seconds. The TH-237A and internal standard were extracted using 1.3 mL of methyl t-butyl ether. Samples were vortexed for 5 minutes and centrifuged. The supernatant was transferred to 2 mL centrifuge tubes and evaporated to dryness. The sample was reconstituted in 0.2 mL of sample solvent, vortexed and centrifuged before a 10 uL aliquot was injected on to the LC/MS system for analysis.
Analysis of TH-237A. The levels of the drug in the samples were determined by means of HPLC/MS. […]

[3] = tested on: P-glycoprotein efflux transporter; experiment: Rhodamine 123 accumulation assay in bovine brain microvessel endothelial cells; format: in vitro ADME; settings: BBMECs
Protocol: First, a rhodamine 123 assay was used for to assess uptake of the test compound in brain endothelial cells. Bovine brain microvessel endothelial cells (“BBMECs”) were isolated and grown in primary culture on 12 well cluster dishes at a density of 50,000 cells/cm^2 essentially as described previously (Rice et al., 2005). The culture medium was changed every other day after seeding until a confluent monolayer was formed as determined by light microscopy. Experiments were performed in phosphate buffered saline supplemented with calcium and glucose (PBSA), pH 7.4. Briefly, the growth medium was first aspirated off, and the cells were rinsed three times with pre-warmed (37° C.) PBSA. […] Cell lysates were assayed using a microplate fluorescence reader (Bio-Tek Instruments, Winooski, Vt.) at excitation/emission wavelengths of 485 nm/520 nm, then quantified against standard curves of rhodamine 123 in lysing solution. The fluorescence of the cell lysates was corrected for autofluorescence of untreated cells. The protein content of each monolayer was then determined using the BCA protein assay reagent kit. Results were expressed as total nanomoles of rhodamine 123 accumulation per mg cellular protein for agents tested at 10 μM.

in vitro = settings: bovine, pH 7.4
Protocol: The BBMECs were grown on 0.4 μm polycarbonate membranes. […] Transport studies were performed in pH 7.4 standard buffer solutions, consisting of either Hank's balanced salt solution (HBSS) or phosphate buffered saline (PBS) supplemented with 0.63 mM CaCl2, 0.74 mM MgSO4, 5.3 mM glucose and 0.1 mM ascorbic acid (PBSA). Briefly, all studies were performed in 3 ml of PBSA in each donor and receiver chamber of the side-by-side diffusion chambers and stirred at 600 rpm at 37° C. The cells were allowed to equilibrate in PBSA for 30 minutes prior to each experiment and oriented such that apical or blood side of the cells face the donor chamber and the basolateral or brain side of the cells adhere to the polycarbonate membranes and face the receiver chamber of the diffusion apparatus. At each time point, a 100 μl sample was taken from the receiver compartment and immediately replaced with an equal volume of PBSA. The transport studies were performed in the presence or absence of CsA (5-10 μM). Monolayers were checked for trypan blue exclusion after experiments as well to assess general cell viability. The permeability of all monolayers used in these experiments was monitored for [^14C] sucrose leakage as a measure of potential TH-237A-induced loss of integrity. The radioactivity was quantified using liquid scintillation spectrometry.

melting point	SMILES	pEC50 (primary cortical neurons)	also measured
	OCC12CO[C@H](c3ccc(F)cc3)N1[C@@H](c1ccc(F)cc1)OC2 (racemic) [TH-236B, (3R,5R) and (3S,5S) (3,5-bis(4-fluorophenyl)tetrahydro-1H-oxazolo[3,4-c]oxazol-7a-yl)methanol]	~7.40	
120 °C	OCC12CO[C@H](c3ccc(C(F)(F)F)cc3)N1[C@@H](c1ccc(C(F)(F)F)cc1)OC2 (racemic) [TH-242B, (3R,5R) and (3S,5S) (3,5-bis(4-trifluoromethylphenyl)tetrahydro-1H-oxazolo[3,4-c]oxazol-7a-yl)methanol]		
89 °C	OCC1(CO)COC(c2ccc(F)cc2)N1 (racemic) [TH-OPEN, (R/S)-(2-(4-fluorophenyl)oxazolidine-4,4-diyl)dimethanol]	~7.30	
98 °C	OCC1(CO)COC(c2ccc(C(F)(F)F)cc2)N1 (racemic) [TH-OPENTFM, (R/S)-(2-(4-(trifluoromethyl)phenyl)oxazolidine-4,4-diyl)dimethanol]		
	O=P([O-])([O-])OCC12COC(c3ccc(F)cc3)N1C(c1ccc(F)cc1)OC2.[Na+].[Na+] (stereo not shown) [(3,5-bis(4-fluorophenyl)tetrahydro-1H-oxazolo[3,4-C]oxazol-7a-yl)methanol phosphate]		systemic exposure of drug from aqueous prodrug solution relative to Captisol solution of the parent compound ([1]; aqueous solution of prodrug): equivalent or better
	OCC12COC(c3ccc(F)cc3)N1C(c1ccc(F)cc1)OC2 (stereo not shown) [(3,5-bis(4-fluorophenyl)tetrahydro-1H-oxazolo[3,4-C]oxazol-7a-yl)methanol]		systemic exposure after oral administration as a suspension compared to solution in Captisol ([1]; suspension): limited
	OC[C@]12CO[C@H](c3ccc(F)cc3)N1[C@H](c1ccc(F)cc1)OC2 [TH-237A, (3R,5S,7as)-(3,5-bis(4-fluorophenyl)tetrahydro-1H-oxazolo[3,4-c]oxazol-7a-yl)methanol]	8.30	plasma half-life [2]: on the order of hours; amount of drug entering the plasma ([2]; regardless of route): a very significant amount of the drug enters the plasma; effect on rhodamine 123 accumulation / P-glycoprotein substrate [3]: not a substrate for the P-glycoprotein efflux transporter; Papp (in vitro): 270 ×10⁻⁶ cm/s
102 °C	OC[C@]12CO[C@H](c3ccc(C(F)(F)F)cc3)N1[C@H](c1ccc(C(F)(F)F)cc1)OC2 [TH-242A]		

— patent US8318787B2, “Prodrugs of (3,5-bis(4-fluorophenyl)tetrahydro-1H-oxazolo[3,4-C]oxazol-7A-yl)methanol and derivatives thereof” (University of Kansas, priority 2005, dated 2012)
